{"source": "paper PMC7567501", "about": "(Journal of Enzyme Inhibition and Medicinal Chemistry, 2019)", "key": {"Aβ1-42": {"biological_target": "T1, Aβ1-42 (Homo sapiens, UniProt P05067)", "T1 construct": "Amyloid β-peptide (1–42), Aβ1-42, was purchased from GeneCust; purchased GeneCust", "T1 sequence (P05067 672-713 limits assumed)": "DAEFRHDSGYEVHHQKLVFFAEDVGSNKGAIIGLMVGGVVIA", "experiment": "TEM imaging of Aβ aggregation inhibition", "details": "compound 50 μM, 37 °C, 24 h, pH 6.6", "procedure": "Nevertheless, since quantitative analysis based on fluorescence of copper(II) containing solutions may result in somehow erroneous conclusions due to some potential emission quenching by this paramagnetic ion, a fluorescence-independent study by transmission electron microscopy (TEM) was also performed for compound 21. […] Overall, TEM confirms the role of the ligand in the inhibition of Aβ aggregation.\nFigure 6. TEM images of Aβ aggregation inhibition performed with samples incubated (37 °C) for 24 h. Experimental conditions: [Aβ1–42] = [CuCl2] = 25 μM; [21] = 50 μM; pH = 6.6.\nFor the study of the β-amyloid (Aβ) aggregation, the ThT fluorescence assay was performed using a Varian Cary Eclipse fluorimeter at the following wavelengths: excitation (446 nm) and emission (485 nm). Amyloid β-peptide (1–42), Aβ1-42, was purchased from GeneCust as a lyophilised powder stored at −20 °C. TEM assays were performed with a Hitachi H8100 transmission electron microscope with a LaB6 filament (200 kV, 10000–20000 × magnification) at MicroLab/IST.\nThe Transmission Electron Microscopy (TEM) is a high resolution technique used to study biological or inorganic samples at 2–3 nm level, through black and white high-quality images. The compound 21 was selected among those with better anti-Aβ aggregation assay. […]"}, "[1]": {"experiment": "Cu(II) complexation, UV-vis spectrophotometric titration", "assay_type": "physicochemical", "details": "25% w/w DMSO/water", "procedure": "It has been largely accepted that chelators interfere both in metal-induced Aβ aggregation/neurotoxicity and on metal homeostasis of AD brains. Among the hybrids with BF hydroxyl substituent, compound 21 was chosen as a representative model to analyse the concomitant chelating capacity towards the redox-active (Fe(III), Cu(II)) and Aβ-binding (Cu(II)) metal ions. Due to solubility reasons, these studies were performed in a mixed 25% (w/w) DMSO/water medium, In fact, DMSO was chosen because it is a widely used and well tolerated solvent in biological and cellular studies, the amounts of ligand (<7 µM) and DMSO (<1%) employed in culture media being quite low with concomitant no alterations observed in cells.\nThe chelating ability of compound 21 towards the two metal ions under study (Fe(III) and Cu(II)) was evaluated on the basis of the global formation constants of the complexes, obtained by treatment of the UV-vis spectrophotometric data (see Table 1).\nFor the metal complexation studies, the aqueous iron (FeCl3, 0.0177 M) and copper (CuCl2, 0.015 M) stock solutions were prepared from 1000 ppm standards (Titrisol) and their metal content was evaluated by atomic absorption. To prevent hydrolysis, the iron stock solution was prepared in excess of acid chloride and its exact concentration in HCl determined by the usual standard-addition method using 0.1 M HCl (Titrisol). The 0.1 M HCl solution, used in spectrophotometric titrations, was prepared from a Titrisol ampoule while the titrant was from carbonate free commercial concentrate (Titrisol, KOH 0.1 M ampoules). The KOH solution was standardised by titration with a solution of potassium hydrogen phthalate and was discarded whenever the percentage of carbonate, determined by Gran’s method, was greater than 0.5% of the total amount of base.\nThe electronic spectra and the AChE inhibition assays were performed in a 1-cm path length quartz cell with a Perkin Elmer Lambda 35 spectrophotometer equipped with a temperature programmer PTP1 + 1 Peltier System (T = 25.0 ± 0.1 °C). The enzyme AChE 500 U, extracted from Electrophorus electricus (electric eel), was purchased from Sigma-Aldrich."}}}
{"smiles": "O=C(NCCCNc1c2c(nc3ccccc13)CCCC2)c1cc2cccc(O)c2o1", "note": "[Compound 21, 7-Hydroxy-N-(3-((1,2,3,4-tetrahydroacridin-9-yl)amino)propyl)benzofuran-2-carboxamide]", "values": [{"measurement": "TEM morphology of Aβ42 aggregates, self-induced", "setting": "Aβ1-42; [Aβ1–42] = 25 μM, no copper", "value": "the aggregates became sparser and more elongated"}, {"measurement": "TEM morphology of Aβ42 aggregates in presence of copper", "setting": "Aβ1-42; [Aβ1–42] = [CuCl2] = 25 μM", "value": "formation of homogenous low molecular aggregates"}, {"measurement": "log βCumHhLl, species (1–11)", "setting": "[1]; T = 25.0 °C, I = 0.1 M KCl", "value": "2.25(3)"}, {"measurement": "log βCumHhLl, species (101)", "setting": "[1]; T = 25.0 °C, I = 0.1 M KCl", "value": "10.87(6)"}, {"measurement": "log βCumHhLl, species (102)", "setting": "[1]; T = 25.0 °C, I = 0.1 M KCl", "value": "20.68(8)"}, {"measurement": "log βCumHhLl, species (111)", "setting": "[1]; T = 25.0 °C, I = 0.1 M KCl", "value": "19.02(2)"}, {"measurement": "pM (pCu) = −log[M]", "setting": "[1]; pH 7.4, CL/CM = 10, CM = 10^−6 M", "value": 11.9}]}
